# Activity calls are given as the source filed them. The calls are words filed in the database; no cut-off is given here.
# System: Mycobacterium tuberculosis
# Test: Antimycobacterial activity against Mycobacterium tuberculosis overexpressing Rv0560c-OE in iron-free GAST medium at 0.04 to 10 uM after 8 days by two fold serial dilution method
# Assay type: functional, organism-based
smiles,measurement,value
Nc1ncnc2c1ncn2[C@@H]1O[C@H](COS(=O)(=O)NC(=O)c2ccccc2O)[C@@H](O)[C@H]1O,Activity,Active

# Reference: ChEMBL document CHEMBL4145560, “Conformationally Constrained Cinnolinone Nucleoside Analogues as Siderophore Biosynthesis Inhibitors for Tuberculosis” (ACS Med Chem Lett, 2018)
